Source: patent US10513523B2, “Imidazopyrazines and pyrazolopyrimidines and their use as AMPA receptor modulators” (Janssen Pharmaceutica NV, priority 2015, dated 2019)

Each compound was assayed against GluA1o-γ8 (GRIA1o-CACNG8 fusion construct; TARP γ8 dependent AMPA receptor) (Homo sapiens (Human), UniProt P42261+Q8WXS5) (assay: Calcium flux assay (FLIPR), inhibition of glutamate response of GluA1o-γ8 channel). Details: HEK293 cells stably expressing GRIA1o-CACNG8 fusion; 15 μM glutamate; pIC50 = negative log of IC50 in molar; read-out: GluR1-γ8 (pIC50) (converted).
Type: cell-based
Outline: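 Potency is the midpoint of a four-parameter logistic fit to control-normalized FLIPR calcium responses elicited by 15 μM glutamate. Stable HEK293 cells carried a fused GluA1o-γ8 construct and were preincubated with compound and calcium dye in pH 7.4 HEPES buffer.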

Chain of GluA1o-γ8 (GRIA1o-CACNG8 fusion construct; TARP γ8 dependent AMPA receptor) (P42261 other isoform, or with tags, fused parts or gaps): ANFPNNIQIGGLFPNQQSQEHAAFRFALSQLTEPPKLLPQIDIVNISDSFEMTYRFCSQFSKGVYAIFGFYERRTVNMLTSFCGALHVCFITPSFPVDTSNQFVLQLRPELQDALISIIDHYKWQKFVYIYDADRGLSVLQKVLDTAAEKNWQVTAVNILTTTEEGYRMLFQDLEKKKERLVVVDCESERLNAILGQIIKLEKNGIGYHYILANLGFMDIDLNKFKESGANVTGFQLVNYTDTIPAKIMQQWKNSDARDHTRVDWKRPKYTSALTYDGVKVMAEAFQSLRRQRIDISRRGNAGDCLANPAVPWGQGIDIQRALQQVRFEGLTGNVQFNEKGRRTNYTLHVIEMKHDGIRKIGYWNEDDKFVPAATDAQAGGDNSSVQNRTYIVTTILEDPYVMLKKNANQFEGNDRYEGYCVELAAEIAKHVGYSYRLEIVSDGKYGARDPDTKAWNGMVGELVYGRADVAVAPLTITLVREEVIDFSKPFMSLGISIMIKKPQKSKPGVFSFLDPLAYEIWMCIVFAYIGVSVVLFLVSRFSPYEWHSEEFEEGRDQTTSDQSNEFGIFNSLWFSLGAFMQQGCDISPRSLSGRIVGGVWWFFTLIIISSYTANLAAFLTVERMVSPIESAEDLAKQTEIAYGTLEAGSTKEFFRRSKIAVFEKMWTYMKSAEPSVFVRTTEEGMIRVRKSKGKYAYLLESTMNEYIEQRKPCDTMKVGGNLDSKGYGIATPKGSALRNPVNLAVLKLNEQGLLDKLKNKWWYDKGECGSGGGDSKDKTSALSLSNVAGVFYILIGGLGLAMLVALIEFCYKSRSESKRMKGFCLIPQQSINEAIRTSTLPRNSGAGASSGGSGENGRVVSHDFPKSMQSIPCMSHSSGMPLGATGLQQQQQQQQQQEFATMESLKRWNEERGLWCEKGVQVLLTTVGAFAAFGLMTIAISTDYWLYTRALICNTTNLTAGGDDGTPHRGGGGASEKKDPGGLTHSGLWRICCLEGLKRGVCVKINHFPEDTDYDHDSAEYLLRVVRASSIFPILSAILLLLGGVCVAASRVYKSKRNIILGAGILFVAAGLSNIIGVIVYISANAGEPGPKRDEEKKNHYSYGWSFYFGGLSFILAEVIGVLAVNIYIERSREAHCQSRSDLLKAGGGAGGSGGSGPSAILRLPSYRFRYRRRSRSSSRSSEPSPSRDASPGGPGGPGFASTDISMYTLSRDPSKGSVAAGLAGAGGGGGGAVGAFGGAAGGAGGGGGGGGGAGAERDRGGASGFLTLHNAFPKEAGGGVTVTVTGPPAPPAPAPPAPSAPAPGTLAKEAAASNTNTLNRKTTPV

Row | SMILES | IC50
1 | Oc1ccc(-c2c(-c3cccc(F)c3)nc3c(N4CCOCC4)nccn23)cc1 [Example 4, 4-[2-(3-Fluorophenyl)-8-morpholino-imidazo[1,2-a]pyrazin-3-yl]phenol] | 63.1 nM
2 | CNc1nccn2c(-c3ccc4[nH]c(=O)[nH]c4c3)c(-c3ccc(F)cc3)nc12 [Example 104, 5-[2-(4-Fluorophenyl)-8-(methylamino)imidazo[1,2-a]pyrazin-3-yl]-1,3-dihydrobenzimidazol-2-one] | 6.31 nM
3 | CC(C)(C)OC(=O)N1CCN(c2nccn3c(-c4ccc(O)cc4)c(-c4ccc(F)cc4)nc23)CC1 [Example 3, tert-Butyl 4-[2-(4-fluorophenyl)-3-(4-hydroxyphenyl)imidazo[1,2-a]pyrazin-8-yl]piperazine-1-carboxylate] | 631 nM
4 | O=C1CN(c2nccn3c(-c4ccc5c(c4)CC(=O)N5)c(Cc4ccccc4)nc23)CCN1 [Example 38, 5-[2-Benzyl-8-(3-oxopiperazin-1-yl)imidazo[1,2-a]pyrazin-3-yl]indolin-2-one] | 1 nM
5 | O=C1Cc2cc(-c3c(-c4ccc(F)cc4)nc4c(N5CCO[C@H](C(F)(F)F)C5)nccn34)ccc2N1 (single isomer, unassigned) [Example 49, (S*)-5-[2-(4-Fluorophenyl)-8-[2-(trifluoromethyl)morpholin-4-yl]imidazo[1,2-a]pyrazin-3-yl]indolin-2-one] | 7.94 nM
6 | CN(C)c1nccn2c(-c3ccc4[nH]c(=O)[nH]c4c3)c(-c3ccc(F)cc3)nc12 [Example 101, 5-[8-(Dimethylamino)-2-(4-fluorophenyl)imidazo[1,2-a]pyrazin-3-yl]-1,3-dihydrobenzimidazol-2-one] | 0.501 nM

More lines, now with the values ahead:

Row | IC50 | SMILES
7 | 7.94 nM | O=C1Cc2cc(-c3c(-c4ccccc4)nc4c(C5=CCOCC5)nccn34)ccc2N1 [Example 131, 5-(8-(3,6-Dihydro-2H-pyran-4-yl)-2-phenylimidazo[1,2-a]pyrazin-3-yl)indolin-2-one]
8 | 20 nM | N#Cc1ccc(-c2nc3c(N4CCNC(=O)C4)nccn3c2-c2ccc3c(c2)CC(=O)N3)cc1 [Example 210, 4-[3-(2-Oxoindolin-5-yl)-8-(3-oxopiperazin-1-yl)imidazo[1,2-a]pyrazin-2-yl]benzonitrile]
9 | 0.2 nM | CC1(O)CCN(c2nccc3c(-c4ccc5c(c4)CC(=O)N5)c(-c4ccc(F)cc4)nn23)CC1 [Example 186, 5-[2-(4-Fluorophenyl)-7-(4-hydroxy-4-methyl-1-piperidyl)pyrazolo[1,5-c]pyrimidin-3-yl]indolin-2-one]
10 | 39800 nM | O=C1Cc2cc(-c3c(C4CC4)nn4cnc(C(F)(F)F)cc34)ccc2N1 [Example 228, 5-[2-Cyclopropyl-5-(trifluoromethyl)pyrazolo[1,5-c]pyrimidin-3-yl]indolin-2-one]
11 | 126 nM | COC1CCN(c2nccc3c(-c4ccc5[nH]ncc5c4)c(C(C)C)nn23)CC1 [Example 237, 3-(1H-indazol-5-yl)-2-isopropyl-7-(4-methoxy-1-piperidyl)pyrazolo[1,5-c]pyrimidine]
12 | 316 nM | CC(C)(C)c1nn2c(N3CC4(COC4)C3)nccc2c1-c1ccc2c(c1)CC(=O)N2 [Example 199, 5-[2-tert-Butyl-7-(6-oxa-2-azaspiro[3.3]heptan-2-yl)pyrazolo[1,5-c]pyrimidin-3-yl]indolin-2-one]
13 | 0.316 nM | CC(=O)N1CCN(c2ncc(Br)n3c(-c4ccc5c(c4)CC(=O)N5)c(Cc4ccccc4)nc23)CC1 [Example 113, 5-(8-(4-Acetylpiperazin-1-yl)-2-benzyl-5-bromoimidazo[1,2-a]pyrazin-3-yl)indolin-2-one]
14 | 501 nM | O=c1[nH]c2ccc(-c3c(-c4ccccc4)nn4cnc(C(F)(F)F)cc34)cc2o1 [Example 223, 6-[2-Phenyl-5-(trifluoromethyl)pyrazolo[1,5-c]pyrimidin-3-yl]-3H-1,3-benzoxazol-2-one]
15 | 3.16 nM | CC(=O)N[C@@H]1CCN(c2nccn3c(-c4ccc5c(c4)CC(=O)N5)c(-c4ccc(F)cc4)nc23)C1 (single isomer, unassigned) [Example 150]
